Results as given in patent US20080311589A1, “METHOD OF HIGH-THROUGHPUT SCREENING OF MOLECULES AND COMPOUNDS FOR THEIR EFFECTS ON BIOLOGICAL AND CHEMICAL PROCESSES” (priority 1999, published 2008).

What was measured:
[1] = system: Mv1Lu mink lung epithelial cells; assay: 6144 well BrdU cytoblot; type: cell-based; conditions: approximately 6000 nanowells
Method: FIG. 4. BrdU incorporation is detected in 6144 well plates with a cytoblot. (a) The actual size of the wells of a 6144 well plate (nanowells; You et al. Chem. Biol. 4:969-975. 1997) is shown. (b) 25× magnification of the blot shown in (a). The indicated number of cells (Mv1Lu) were seeded in […] volumes in duplicate in 1% mink medium with or without 10 μM BrdU or 400 pM TGF-β, as indicated. The cells were cultured for 24 hours at 37° C. with 5% CO2 and then a 6144 well cytoblot was performed (see protocols). (c) Two separate nanowell plates (You et al. Chem. Biol. 4:969-975. 1997) were seeded with 20,000 Mv1Lu cells/mL in 1% mink medium with or without 500 pM TGF-13. After 26 hours at 37° C. with 5% CO2 BrdU was added to a final concentration of 10 μM. The cells were incubated for an additional 18 hours at 37° C. with 5% CO2 and then a 6144 well cytoblot was performed (see protocols).
The anti-BrdU cytoblot assay was then tested for its ability to detect the inhibition of BrdU uptake in a plate containing approximately 6000 arrayed “nanowells” (You et al. Chem Biol 4:969-975. 1997. Incorporated herein by reference). […] The following protocol provides experimental detail.
The reagents to be tested were prepared in 1536 well plates with one or more test compound per well. […]

phosphorylated nucleolin = assay: anti-phosphonucleolin (TG-3) cytoblot screen; type: cell-based, human
Method: A detection assay providing an indirect measure of the mitotic index of a population of cells was used to identify compounds that act as cell cycle inhibitors. By measuring the level of phosphorylation of a chromatin-associated protein using the anti-phosphonucleolin (TG-3) cytoblot (Stockwell et al. 1999), nucleolin the mitotic index (i.e., the number of cell in mitosis) was assessed. In brief, the library compounds were dissolved in DMSO (5 mg/ml) and pin-transferred from 384-well plates (Library plates #1-51) for a final concentration 5-10 ug/ml using a 384-polypropylene pin array (Genetix) into 384-well screening plates (Nunc) seeded with 4,000 A549 human lung carcinoma cells (ATCC) in DMEM+ and incubated for 22 hours at 37° C. with 5% CO2. Compounds from library plates #1-24 were pooled at two compounds per well, while compounds from library plates #25-51 were tested singly. […] The reactivity of the anti-phosphonucleolin antibody was measured using enhanced chemiluminescent detection (Amersham) after incubation of each well with a horseradish peroxidase-coupled anti-mouse IgM secondary antibody (Sigma) and addition of luminol. The relative luminescence produced from each well was measured on an automatic plate reader (LJL Analyst). […]

| EC50 (effective concentration) in the cytoblot assay (phosphorylated nucleolin) | Substance | BrdU incorporation [1] |
| --- | --- | --- |
| – | TGF-β: anti-mitogen transforming growth factor β, multifunctional polypeptide signaling factor | prevented BrdU incorporation |
| 22 µM | monastrol | – |
